The source of these data is patent publication US12053470B2, “Pharmaceutical combination comprising an ALK inhibitor and a SHP2 inhibitor” (Novartis AG, priority 2017, dated 2024).

pIC50: −log10 of the molar value.

Test [1] addresses SHP2 (Homo sapiens (Human), UniProt Q06124). The test is described as follows: SHP2 allosteric inhibition assay (DiFMUP prompt fluorescence). The class given is biochemical.
The subject of test [2] is Ceritinib resistant MGH049 cells. The test is described as follows: Cell colony formation assay with ceritinib resistant MGH049 cells.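 Further: tested compounds are SHP2 inhibitors given alone, colonies fixed and crystal violet stained, DMSO reference taken as the mean of six readings.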 It is filed as cell-based, human. The settings on record: Homo sapiens, 168 h; compound of Table 1 (3 μM) alone, 7 days; normalized to DMSO without compound = 100; read-out: Normalized Crystal Violet abs. (590 nm) DMSO.

SHP2, sequence (Q06124 whole entry): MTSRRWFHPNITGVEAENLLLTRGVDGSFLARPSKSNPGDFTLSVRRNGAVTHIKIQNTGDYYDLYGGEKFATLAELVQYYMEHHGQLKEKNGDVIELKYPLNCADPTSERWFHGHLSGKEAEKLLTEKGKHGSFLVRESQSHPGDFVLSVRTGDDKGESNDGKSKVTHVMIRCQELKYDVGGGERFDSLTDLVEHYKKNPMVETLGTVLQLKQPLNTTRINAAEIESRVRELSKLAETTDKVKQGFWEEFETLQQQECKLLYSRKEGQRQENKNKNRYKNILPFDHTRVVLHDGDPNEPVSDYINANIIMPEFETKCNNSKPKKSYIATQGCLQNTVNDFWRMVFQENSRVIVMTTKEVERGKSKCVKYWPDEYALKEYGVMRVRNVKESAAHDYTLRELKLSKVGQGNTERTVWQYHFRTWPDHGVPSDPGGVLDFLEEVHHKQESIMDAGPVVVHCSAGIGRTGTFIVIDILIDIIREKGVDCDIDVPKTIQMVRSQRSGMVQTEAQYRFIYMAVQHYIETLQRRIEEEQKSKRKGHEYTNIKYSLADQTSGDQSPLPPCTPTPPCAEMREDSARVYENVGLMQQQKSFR

`C[C@@H]1OCC2(CCN(c3cnc(-c4cccc(Cl)c4Cl)c(N)n3)CC2)[C@@H]1N` [compound 7, (3S,4S)-8-(6-amino-5-(2,3-dichlorophenyl)pyrazin-2-yl)-3-methyl-2-oxa-8-azaspiro[4.5]decan-4-amine]: the pIC50 in test [1] was 7.41. For the same compound, the activity at 3 µM in test [2] turned out to be 98.2%. In turn, `Nc1nc(N2CCC3(CCCN3)CC2)cnc1-c1cccc(Cl)c1Cl` [compound 8, 3-(2,3-dichlorophenyl)-6-(1,8-diazaspiro[4.5]decan-8-yl)pyrazin-2-amine] gave a pIC50 in test [1] of 6.81. For the same compound, the activity at 3 µM in test [2] was determined as 99.9%.

As to `Nc1nc(N2CCC3(CCC[C@H]3N)CC2)cnc1-c1cccc(Cl)c1Cl` [compound 9, (R)-8-(6-amino-5-(2,3-dichlorophenyl)pyrazin-2-yl)-8-azaspiro[4.5]decan-1-amine], the pIC50 in test [1] was 7.14. Also, the activity at 3 µM in test [2] came to 118%. `Nc1nc(N2CCC3(CC2)COC[C@H]3N)cnc1Sc1cccnc1C(F)(F)F` [compound 10, (S)-8-(6-amino-5-((2-(trifluoromethyl)pyridin-3-yl)thio)pyrazin-2-yl)-2-oxa-8-azaspiro[4.5]decan-4-amine] had a pIC50 in test [1] of 7.60. In turn, `CC1CCC2(CCN(c3cnc(Sc4ccnc(N)c4Cl)c(N)n3)CC2)[C@@H]1N` (stereo partly drawn) [compound 15, (1R)-8-(6-amino-5-((2-amino-3-chloropyridin-4-yl)thio)pyrazin-2-yl)-2-methyl-8-azaspiro[4.5]decan-1-amine] showed a pIC50 in test [1] of 8.05. Further, in test [2], the activity at 3 µM worked out at 31%.

Consider `CC[C@@H]1OCC2(CCN(c3cnc(Sc4ccnc(N)c4Cl)c(N)n3)CC2)[C@@H]1N` [compound 17, (3S,4S)-8-(6-amino-5-((2-amino-3-chloropyridin-4-yl)thio)pyrazin-2-yl)-3-ethyl-2-oxa-8-azaspiro[4.5]decan-4-amine], for which the pIC50 in test [1] was 8.05. Further, the activity at 3 µM in test [2] worked out at 29.4%. As to `Nc1nccc(Sc2cnc(N3CCC4(CC3)C[C@@H](O)C[C@H]4N)cn2)c1Cl` [compound 18, (2R,4R)-4-amino-8-(5-((2-amino-3-chloropyridin-4-yl)thio)pyrazin-2-yl)-8-azaspiro[4.5]decan-2-ol], in test [1], the pIC50 was 8.35. Further, in test [2], the activity at 3 µM amounted to 32.3%.

In test [1], `C[C@H]1C[C@@H](N)C2(CCN(c3cnc(Sc4ccnc(N)c4Cl)cn3)CC2)C1` [compound 19, (1R,3R)-8-(5-((2-amino-3-chloropyridin-4-yl)thio)pyrazin-2-yl)-3-methyl-8-azaspiro[4.5]decan-1-amine] had a pIC50 of 8.22. The activity at 3 µM in test [2] was found to be 96.1%. Turning to `CC1CCC2(CCN(c3cnc(Sc4ccnc(N)c4Cl)cn3)CC2)[C@@H]1N` (stereo partly drawn) [compound 20, (1R)-8-(5-((2-amino-3-chloropyridin-4-yl)thio)pyrazin-2-yl)-2-methyl-8-azaspiro[4.5]decan-1-amine], the pIC50 in test [1] is 8.22. Besides, the activity at 3 µM in test [2] came to 54.7%. The like results for `C[C@@H]1OCC2(CCN(c3cnc(Sc4cc(N)nc(Cl)c4Cl)cn3)CC2)[C@@H]1N` [compound 21, (3S,4S)-8-(5-((6-amino-2,3-dichloropyridin-4-yl)thio)pyrazin-2-yl)-3-methyl-2-oxa-8-azaspiro[4.5]decan-4-amine] were, in that order, 7.85 and 48.2%. The like results for `C[C@@H]1OCC2(CCN(c3cnc(Sc4ccnc(N)c4Cl)cn3)CC2)[C@@H]1N` [compound 22, (3S,4S)-8-(5-((2-amino-3-chloropyridin-4-yl)thio)pyrazin-2-yl)-3-methyl-2-oxa-8-azaspiro[4.5]decan-4-amine] were, in that order, 8.10 and 19.5%. On to `Nc1nccc(Sc2cnc(N3CCC4(CC3)COC[C@H]4N)cn2)c1Cl` [compound 24, (S)-8-(5-((2-amino-3-chloropyridin-4-yl)thio)pyrazin-2-yl)-2-oxa-8-azaspiro[4.5]decan-4-amine], for which the pIC50 in test [1] is 8.22. Besides, the activity at 3 µM in test [2] amounted to 43.5%. In test [1], `Cn1c(N2CCC3(CCC[C@H]3N)CC2)nc2n[nH]c(-c3cccc(Cl)c3Cl)c2c1=O` [compound 37, (R)-6-(1-amino-8-azaspiro[4.5]decan-8-yl)-3-(2,3-dichlorophenyl)-5-methyl-2,5-dihydro-4H-pyrazolo[3,4-d]pyrimidin-4-one] gave a pIC50 of 7.59. Besides, in test [2], the activity at 3 µM amounted to 45%. Take `Cc1nc(N)ccc1-c1[nH]nc2nc(N3CCC4(CC3)CC(F)(F)C[C@H]4N)n(C)c(=O)c12` [compound 41, (R)-3-(6-amino-2-methylpyridin-3-yl)-6-(1-amino-3,3-difluoro-8-azaspiro[4.5]decan-8-yl)-5-methyl-2,5-dihydro-4H-pyrazolo[3,4-d]pyrimidin-4-one]: the activity at 3 µM in test [2] came to 25.3%. On the same count and under the same terms, the same measure for `COc1nccc(-c2c[nH]c3nc(N4CCC5(CC4)CO[C@@H](C)[C@H]5N)n(C)c(=O)c23)c1Cl` [compound 43, 2-((3S,4S)-4-amino-3-methyl-2-oxa-8-azaspiro[4.5]decan-8-yl)-5-(3-chloro-2-methoxypyridin-4-yl)-3-methyl-3,7-dihydro-4H-pyrrolo[2,3-d]pyrimidin-4-one]: 95.6%; for `C[C@@H]1OCC2(CCN(c3cnc(Sc4cccc(NC(=O)c5c(O)nc6n(c5=O)CCCC6)c4Cl)c(N)n3)CC2)[C@@H]1N` [compound 45, N-(3-((3-amino-5-((3S,4S)-4-amino-3-methyl-2-oxa-8-azaspiro[4.5]decan-8-yl)pyrazin-2-yl)thio)-2-chlorophenyl)-2-hydroxy-4-oxo-6,7,8,9-tetrahydro-4H-pyrido[1,2-a]pyrimidine-3-carboxamide]: 12.1%. In test [1], `CC1(N)CCN(c2cnc(Sc3cccc(NC(=O)C4=C(O)CN(c5ccccc5)C4=O)c3Cl)c(N)n2)CC1` [compound 46, N-(3-((3-amino-5-(4-amino-4-methylpiperidin-1-yl)pyrazin-2-yl)thio)-2-chlorophenyl)-4-hydroxy-2-oxo-1-phenyl-2,5-dihydro-1H-pyrrole-3-carboxamide] gave a pIC50 of 8.40. The activity at 3 µM in test [2] came out at 70.9%. Regarding `Nc1nc(N2CCC3(CCC[C@H]3N)CC2)cnc1Sc1cccc(NC(=O)c2c(O)nc3n(c2=O)CCCC3)c1Cl` [compound 47, (R)-N-(3-((3-amino-5-(1-amino-8-azaspiro[4.5]decan-8-yl)pyrazin-2-yl)thio)-2-chlorophenyl)-2-hydroxy-4-oxo-6,7,8,9-tetrahydro-4H-pyrido[1,2-a]pyrimidine-3-carboxamide], the activity at 3 µM in test [2] was found to be 14.8%. On the same count and under the same terms, the same measure for `CC1(CN)CCN(c2cnc(Sc3cccc(NC(=O)c4c(O)nc5n(c4=O)CCCC5)c3Cl)c(N)n2)CC1` [compound 48, N-(3-((3-amino-5-(4-(aminomethyl)-4-methylpiperidin-1-yl)pyrazin-2-yl)thio)-2-chlorophenyl)-2-hydroxy-4-oxo-6,7,8,9-tetrahydro-4H-pyrido[1,2-a]pyrimidine-3-carboxamide]: 52.3%; for `Nc1nc(N2CCC3(CC2)CC(F)(F)C[C@H]3N)cnc1Sc1cccc(NC(=O)c2c(O)nc3n(c2=O)CCCC3)c1Cl` [compound 49, (R)-N-(3-((3-amino-5-(1-amino-3,3-difluoro-8-azaspiro[4.5]decan-8-yl)pyrazin-2-yl)thio)-2-chlorophenyl)-2-hydroxy-4-oxo-6,7,8,9-tetrahydro-4H-pyrido[1,2-a]pyrimidine-3-carboxamide]: 26.5%. For the compound `CC1(CN)CCN(c2cnc(Sc3cccc(NC(=O)c4c(O)nc5ccccn5c4=O)c3Cl)c(N)n2)CC1` [compound 50, N-(3-((3-amino-5-(4-(aminomethyl)-4-methylpiperidin-1-yl)pyrazin-2-yl)thio)-2-chlorophenyl)-2-hydroxy-4-oxo-4H-pyrido[1,2-a]pyrimidine-3-carboxamide], the activity at 3 µM in test [2] came to 98.9%. For the compound `Nc1nc(N2CCC(N)(CF)CC2)cnc1Sc1cccc(NC(=O)c2c(O)nc3n(c2=O)CCCC3)c1Cl` [compound 51, N-(3-((3-amino-5-(4-amino-4-(fluoromethyl)piperidin-1-yl)pyrazin-2-yl)thio)-2-chlorophenyl)-2-hydroxy-4-oxo-6,7,8,9-tetrahydro-4H-pyrido[1,2-a]pyrimidine-3-carboxamide], the pIC50 in test [1] was 8.22. In addition, the activity at 3 µM in test [2] turned out to be 94%. In the same order, the values of `Nc1nc(N2CCC(N)(CF)CC2)cnc1Sc1cccc(NC(=O)c2c(O)nc3ccccn3c2=O)c1Cl` [compound 52, N-(3-((3-amino-5-(4-amino-4-(fluoromethyl)piperidin-1-yl)pyrazin-2-yl)thio)-2-chlorophenyl)-2-hydroxy-4-oxo-4H-pyrido[1,2-a]pyrimidine-3-carboxamide] are 8.30 and 67.9%. For the compound `Nc1nc(N2CCC3(CC2)COC[C@H]3N)cnc1Sc1cccc(NC(=O)c2c(O)nc3n(c2=O)CCCC3)c1Cl` [compound 53, (S)-N-(3-((3-amino-5-(4-amino-2-oxa-8-azaspiro[4.5]decan-8-yl)pyrazin-2-yl)thio)-2-chlorophenyl)-2-hydroxy-4-oxo-6,7,8,9-tetrahydro-4H-pyrido[1,2-a]pyrimidine-3-carboxamide], in test [2], the activity at 3 µM stood at 46.5%. `CN1C(=O)C(C(=O)Nc2cccc(Sc3ncc(N4CCC(C)(N)CC4)nc3N)c2Cl)=C(O)C1Cc1ccccc1` (stereo not shown) [compound 54, N-(3-((3-amino-5-(4-amino-4-methylpiperidin-1-yl)pyrazin-2-yl)thio)-2-chlorophenyl)-5-benzyl-4-hydroxy-1-methyl-2-oxo-2,5-dihydro-1H-pyrrole-3-carboxamide]: the activity at 3 µM in test [2] worked out at 132%.
